In ChEMBL document CHEMBL1131253, “A pyridoxine cyclic phosphate and its 6-azoaryl derivative selectively potentiate and antagonize activation of P2X1 receptors” (J Med Chem, 1998):

Legend:
P2X purinoceptor 1 = target: T1, P2X purinoceptor 1 (Rattus norvegicus, UniProt P47824); test: Compound was tested in a functional ion channel assay of ATP-induced current at recombinant rat P2X1 receptor expressed in Xenopus oocytes.; type: cell-based, Oocyte
T1 sequence (P47824 whole entry): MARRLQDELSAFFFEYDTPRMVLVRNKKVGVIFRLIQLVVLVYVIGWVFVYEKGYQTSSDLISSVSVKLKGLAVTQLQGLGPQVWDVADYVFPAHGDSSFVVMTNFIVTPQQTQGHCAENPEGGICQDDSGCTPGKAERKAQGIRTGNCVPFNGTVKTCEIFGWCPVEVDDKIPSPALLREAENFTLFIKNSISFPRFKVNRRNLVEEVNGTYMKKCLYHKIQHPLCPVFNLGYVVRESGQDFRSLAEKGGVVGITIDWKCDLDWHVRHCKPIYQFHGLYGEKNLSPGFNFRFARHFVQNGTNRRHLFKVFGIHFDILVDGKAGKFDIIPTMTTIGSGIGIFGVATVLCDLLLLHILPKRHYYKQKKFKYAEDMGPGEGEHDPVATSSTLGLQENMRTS

P2X purinoceptor 3 = target: T2, P2X purinoceptor 3 (Rattus norvegicus, UniProt P49654); test: Compound was tested in a functional ion channel assay of ATP-induced current at recombinant rat P2X3 receptor expressed in Xenopus oocytes.; type: cell-based, Oocyte
T2 sequence (P49654 whole entry): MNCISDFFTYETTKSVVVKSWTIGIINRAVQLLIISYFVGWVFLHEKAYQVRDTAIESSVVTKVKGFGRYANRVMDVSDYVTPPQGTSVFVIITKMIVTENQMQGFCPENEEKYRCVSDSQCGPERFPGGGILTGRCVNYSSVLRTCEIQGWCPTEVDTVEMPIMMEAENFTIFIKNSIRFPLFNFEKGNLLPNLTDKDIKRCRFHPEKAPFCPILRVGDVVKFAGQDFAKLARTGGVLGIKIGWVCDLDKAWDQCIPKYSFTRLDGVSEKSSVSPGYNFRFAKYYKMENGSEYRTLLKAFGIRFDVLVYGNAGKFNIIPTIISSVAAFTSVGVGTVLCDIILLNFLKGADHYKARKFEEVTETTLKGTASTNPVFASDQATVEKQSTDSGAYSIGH

| SMILES | IC50 (P2X purinoceptor 1) [nM] | IC50 (P2X purinoceptor 3) [µM] | EC50 (P2X purinoceptor 1) [µM] |
| --- | --- | --- | --- |
| Cc1nc(/N=N/c2cc(S(=O)(=O)O)ccc2S(=O)(=O)O)c2c(c1O)COP(=O)(O)OC2 | 10200 | 58.3 |  |
| Cc1nc(/N=N/c2ccc(S(=O)(=O)O)cc2S(=O)(=O)O)c(COP(=O)(O)O)c(C=O)c1O | 98.5 | 0.24 |  |
| Cc1ncc2c(c1O)COP(=O)(O)OC2 |  |  | 5.9 |
| Cc1nc(/N=N/c2cc(S(=O)(=O)O)ccc2S(=O)(=O)O)c(COP(=O)(O)O)c(C=O)c1O [ISOPPADS] | 42.5 |  |  |
